pIC50: −log10 of the molar value. “And” between values parts separate entries of the source, which are not always exact repeats. Identical values can stand only once.
The compounds below were run against Syk (Homo sapiens, UniProt P43405) (assay: High Throughput Syk Biochemical Assay (KinEASE TR-FRET)). Conditions: TABLE D, 20 μM ATP, 1 μM biotinylated peptide, 0.015 nM Syk, 30 min at room temperature, read-out: IC50.
Summary of the method: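 Compounds in DMSO dilution series were tested against Syk, which phosphorylates an XL665-tagged peptide. The phosphoproduct was bound by Eu-labelled phosphotyrosine antibody in a two-step endpoint format.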

Row | Structure (SMILES) | pIC50
1 | C[C@@H](Oc1cc(-c2ccc(N3CCN(C(=O)OC(C)(C)C)CC3)cc2)cc2ncsc12)[C@H]1CNC(=O)C1 (stereo in doubt) [tert-butyl 4-(4-(7-((R)-1-((R)-5-oxopyrrolidin-3-yl)ethoxy)benzo[d]thiazol-5-yl)phenyl)piperazine-1-carboxylate] | 8.04
2 | C[C@@H](Oc1nc(-c2ccc(S(C)(=O)=O)cc2)cc2ncn(C)c12)[C@H]1CNC(=O)C1 [(R)-4-((R)-1-(3-methyl-6-(4-(methylsulfonyl)phenyl)-3H-imidazo[4,5-c]pyridin-4-yloxy)ethyl)pyrrolidin-2-one] | 7.56
3 | COc1cc(-c2cc3ncn(C)c3c(O[C@H](C)[C@H]3CNC(=O)C3)n2)cc(OC)c1OC [(R)-4-((R)-1-(3-methyl-6-(3,4,5-trimethoxyphenyl)-3H-imidazo[4,5-c]pyridin-4-yloxy)ethyl)pyrrolidin-2-one] | 8.28
4 | C[C@@H](Oc1nc(-c2ccc(N3CCN(C(=O)OC(C)(C)C)CC3)cc2)cc2ncn(C)c12)[C@H]1CNC(=O)C1 [tert-butyl 4-(4-(3-methyl-4-((R)-1-((R)-5-oxopyrrolidin-3-yl)ethoxy)-3H-imidazo[4,5-c]pyridin-6-yl)phenyl)piperazine-1-carboxylate] | 7.74
5 | C[C@@H](Oc1nc(-c2ccc(C#N)cc2)cc2ncn(C)c12)[C@H]1CNC(=O)C1 [4-(3-methyl-4-((R)-1-((R)-5-oxopyrrolidin-3-yl)ethoxy)-3H-imidazo[4,5-c]pyridin-6-yl)benzonitrile] | 7.55
6 | C=CC[C@@H](Oc1nc(-c2cnn(C(C)(C)C)c2)cc2ncn(C)c12)[C@H]1CNC(=O)C1 | 7.72
7 | C[C@@H](Oc1nc(-c2ccc(N3CCOCC3)cc2)cc2ncn(C(F)F)c12)[C@H]1CNC(=O)C1 [(R)-4-((R)-1-(3-(difluoromethyl)-6-(4-morpholinophenyl)-3H-imidazo[4,5-c]pyridin-4-yloxy)ethyl)pyrrolidin-2-one] | 8.81 and 8.90
8 | COc1ccc(-c2cc3ncn(C(C)C)c3c(O[C@H](C)[C@H]3CNC(=O)C3)n2)cc1OC [(R)-4-((R)-1-(6-(3,4-dimethoxyphenyl)-3-isopropyl-3H-imidazo[4,5-c]pyridin-4-yloxy)ethyl)pyrrolidin-2-one] | 8.47

Same assay, conditions: table 'ALL NEW COMPOUNDS IN 2014', 20 μM ATP, 1 μM biotinylated peptide, 0.015 nM Syk, 30 min at room temperature, read-out: Syk IC50

Row | Structure (SMILES) | pIC50
9 | C[C@@H](Oc1cc(-c2cnn(C3COC3)c2)cc2ncn(C3CC3)c12)[C@H]1CNC(=O)C1 [(R)-4-((R)-1-((1-cyclopropyl-5-(1-(oxetan-3-yl)-1H-pyrazol-4-yl)-1H-benzo[d]imidazol-7-yl)oxy)ethyl)pyrrolidin-2-one] | 8.49
10 | C[C@@H](Oc1nc(-c2ccc3c(c2)n(C)c(=O)n3C)cc2ncn(C3CC3)c12)[C@H]1CNC(=O)C1 | 8.32
11 | C[C@@H](Oc1cc(-c2ccc(N3CC4CC(C3)O4)cn2)cc2ncn(C3CC3)c12)[C@H]1CNC(=O)C1 [(4R)-4-((1R)-1-((5-(5-(6-oxa-3-azabicyclo[3.1.1]heptan-3-yl)pyridin-2-yl)-1-cyclopropyl-1H-benzo[d]imidazol-7-yl)oxy)ethyl)pyrrolidin-2-one] | 8.25
12 | Cc1cnc(-c2cc(O[C@H](C)[C@H]3CNC(=O)C3)c3c(c2)ncn3C2CC2)s1 [(R)-4-((R)-1-((1-cyclopropyl-5-(5-methylthiazol-2-yl)-1H-benzo[d]imidazol-7-yl)oxy)ethyl)pyrrolidin-2-one] | 8.76
13 | C[C@@H](Oc1cc(-c2cnn(C(C)(C)CO)c2)cc2ncn(C3CC3)c12)[C@H]1CNC(=O)C1 [(R)-4-((R)-1-((1-cyclopropyl-5-(1-(1-hydroxy-2-methylpropan-2-yl)-1H-pyrazol-4-yl)-1H-benzo[d]imidazol-7-yl)oxy)ethyl)pyrrolidin-2-one] | 8.70
14 | Cc1cc(-c2cc(O[C@H](C)[C@H]3CNC(=O)C3)c3c(c2)ncn3C2CC2)ccc1N1CCN(C2COC2)CC1 [(R)-4-((R)-1-((1-cyclopropyl-5-(3-methyl-4-(4-(oxetan-3-yl)piperazin-1-yl)phenyl)-1H-benzo[d]imidazol-7-yl)oxy)ethyl)pyrrolidin-2-one] | 8.67
15 | C[C@@H](Oc1nc(-c2ccc3oc(=O)n(C)c3c2)cc2ncn(C3CC3)c12)[C@H]1CNC(=O)C1 | 7.84

Source: patent US10005774B2, “Syk inhibitors” (Gilead Sciences, Inc., priority 2013, dated 2018)
